{"source": "paper PMC5119973", "about": "(Cancer Medicine, 2016)", "key": {"[1]": {"target": "T1, CSF1R (Homo sapiens, UniProt P07333)", "T1 construct": "purchased DiscoveRx (KINOMEscan service)", "T1 sequence (P07333 20-972)": "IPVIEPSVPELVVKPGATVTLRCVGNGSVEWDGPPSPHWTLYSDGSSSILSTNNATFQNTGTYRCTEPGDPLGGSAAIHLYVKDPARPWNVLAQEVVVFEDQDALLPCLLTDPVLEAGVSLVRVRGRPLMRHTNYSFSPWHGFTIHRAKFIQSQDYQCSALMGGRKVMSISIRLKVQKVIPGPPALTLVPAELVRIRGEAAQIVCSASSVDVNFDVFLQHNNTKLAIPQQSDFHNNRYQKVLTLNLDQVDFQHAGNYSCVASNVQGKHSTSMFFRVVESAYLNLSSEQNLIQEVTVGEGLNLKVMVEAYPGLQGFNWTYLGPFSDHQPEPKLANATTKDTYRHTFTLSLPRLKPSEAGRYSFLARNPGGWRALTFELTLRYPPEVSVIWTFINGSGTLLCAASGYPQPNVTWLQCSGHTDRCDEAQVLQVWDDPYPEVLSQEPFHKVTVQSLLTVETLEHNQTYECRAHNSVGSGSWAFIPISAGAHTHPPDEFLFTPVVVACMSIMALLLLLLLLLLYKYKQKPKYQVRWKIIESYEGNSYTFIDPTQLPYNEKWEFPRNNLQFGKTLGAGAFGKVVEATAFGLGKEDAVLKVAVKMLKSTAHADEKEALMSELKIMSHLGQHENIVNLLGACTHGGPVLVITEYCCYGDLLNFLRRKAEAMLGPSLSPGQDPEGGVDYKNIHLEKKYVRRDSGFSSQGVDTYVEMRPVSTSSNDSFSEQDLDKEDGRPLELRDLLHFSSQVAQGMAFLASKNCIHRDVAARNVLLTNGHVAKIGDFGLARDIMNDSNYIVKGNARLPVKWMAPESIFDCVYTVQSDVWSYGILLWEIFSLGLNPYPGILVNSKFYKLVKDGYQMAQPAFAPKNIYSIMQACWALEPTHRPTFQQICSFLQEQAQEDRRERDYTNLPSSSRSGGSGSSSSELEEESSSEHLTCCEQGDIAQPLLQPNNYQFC", "assay": "KINOMEscan active-site competitive binding assay", "details": "slash = two separate measurements"}, "[2]": {"target": "T2, p38-alpha (Homo sapiens, UniProt Q16539)", "T2 construct": "purchased DiscoveRx (KINOMEscan service)", "T2 sequence (Q16539 whole entry)": "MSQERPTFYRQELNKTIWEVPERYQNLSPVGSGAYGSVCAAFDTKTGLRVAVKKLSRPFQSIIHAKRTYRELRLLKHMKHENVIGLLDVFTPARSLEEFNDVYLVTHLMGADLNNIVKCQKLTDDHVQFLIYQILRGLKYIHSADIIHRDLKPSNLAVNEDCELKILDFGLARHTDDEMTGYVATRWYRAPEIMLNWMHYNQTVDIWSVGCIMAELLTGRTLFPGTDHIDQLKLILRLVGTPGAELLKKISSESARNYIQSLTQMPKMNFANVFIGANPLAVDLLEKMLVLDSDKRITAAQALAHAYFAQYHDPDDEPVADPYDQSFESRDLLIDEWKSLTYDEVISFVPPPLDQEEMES", "assay": "KINOMEscan active-site competitive binding assay", "details": "slash = two separate measurements"}, "[3]": {"target": "T3, JNK2 (Homo sapiens, UniProt P45984)", "T3 construct": "purchased DiscoveRx (KINOMEscan service)", "T3 sequence (P45984 whole entry)": "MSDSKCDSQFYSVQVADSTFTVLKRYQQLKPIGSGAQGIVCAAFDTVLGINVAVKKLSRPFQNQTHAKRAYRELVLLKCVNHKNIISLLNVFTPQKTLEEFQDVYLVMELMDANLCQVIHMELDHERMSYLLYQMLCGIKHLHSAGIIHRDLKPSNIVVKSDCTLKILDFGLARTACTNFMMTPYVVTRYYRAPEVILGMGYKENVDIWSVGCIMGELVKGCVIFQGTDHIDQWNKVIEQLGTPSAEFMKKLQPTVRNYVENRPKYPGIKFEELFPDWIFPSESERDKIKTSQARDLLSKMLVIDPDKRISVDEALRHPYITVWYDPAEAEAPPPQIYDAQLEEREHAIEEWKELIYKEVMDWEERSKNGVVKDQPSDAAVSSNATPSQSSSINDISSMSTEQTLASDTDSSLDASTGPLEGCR", "assay": "KINOMEscan active-site competitive binding assay", "details": "slash = duplicate values"}, "[4]": {"target": "T4, p38-beta (Homo sapiens, UniProt Q15759)", "T4 construct": "purchased DiscoveRx (KINOMEscan service)", "T4 sequence (Q15759 whole entry)": "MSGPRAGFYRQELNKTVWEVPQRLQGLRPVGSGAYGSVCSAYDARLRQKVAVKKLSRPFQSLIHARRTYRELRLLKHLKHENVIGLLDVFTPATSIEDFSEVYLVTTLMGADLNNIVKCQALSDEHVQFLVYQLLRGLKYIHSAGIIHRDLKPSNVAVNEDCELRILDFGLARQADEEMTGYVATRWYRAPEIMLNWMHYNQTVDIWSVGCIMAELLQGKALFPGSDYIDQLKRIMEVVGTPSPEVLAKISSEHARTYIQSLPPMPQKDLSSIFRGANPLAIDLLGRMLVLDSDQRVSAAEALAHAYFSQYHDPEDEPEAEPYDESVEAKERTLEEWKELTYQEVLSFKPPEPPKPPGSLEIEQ", "assay": "KINOMEscan active-site competitive binding assay", "details": "slash = two separate measurements"}, "[5]": {"target": "T5, MUSK (Homo sapiens, UniProt O15146)", "T5 construct": "purchased DiscoveRx (KINOMEscan service)", "T5 sequence (O15146 24-869)": "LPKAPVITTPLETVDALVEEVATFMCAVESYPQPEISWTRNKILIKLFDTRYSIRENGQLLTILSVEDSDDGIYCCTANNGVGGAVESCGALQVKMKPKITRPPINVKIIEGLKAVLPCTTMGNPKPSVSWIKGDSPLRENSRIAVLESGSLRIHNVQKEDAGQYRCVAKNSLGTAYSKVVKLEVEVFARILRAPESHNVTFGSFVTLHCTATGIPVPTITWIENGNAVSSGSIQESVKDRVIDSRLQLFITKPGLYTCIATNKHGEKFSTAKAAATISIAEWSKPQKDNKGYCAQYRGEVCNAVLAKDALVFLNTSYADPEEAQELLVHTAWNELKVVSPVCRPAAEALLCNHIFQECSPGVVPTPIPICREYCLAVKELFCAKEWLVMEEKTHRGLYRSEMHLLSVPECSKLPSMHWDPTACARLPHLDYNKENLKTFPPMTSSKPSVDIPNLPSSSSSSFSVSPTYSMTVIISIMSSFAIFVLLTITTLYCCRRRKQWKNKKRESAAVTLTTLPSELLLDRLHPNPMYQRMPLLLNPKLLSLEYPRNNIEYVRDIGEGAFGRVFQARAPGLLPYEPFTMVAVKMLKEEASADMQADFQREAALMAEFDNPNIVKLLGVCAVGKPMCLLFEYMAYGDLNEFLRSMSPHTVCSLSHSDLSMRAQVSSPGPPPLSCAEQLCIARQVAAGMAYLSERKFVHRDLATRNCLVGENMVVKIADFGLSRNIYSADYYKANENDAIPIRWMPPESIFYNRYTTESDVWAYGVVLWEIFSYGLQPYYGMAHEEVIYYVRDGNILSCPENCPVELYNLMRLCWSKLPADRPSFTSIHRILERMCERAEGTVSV", "assay": "KINOMEscan active-site competitive binding assay", "details": "slash = two separate measurements"}, "[6]": {"target": "T6, ZAK (Homo sapiens, UniProt Q9NYL2)", "T6 construct": "purchased DiscoveRx", "T6 sequence (Q9NYL2 whole entry)": "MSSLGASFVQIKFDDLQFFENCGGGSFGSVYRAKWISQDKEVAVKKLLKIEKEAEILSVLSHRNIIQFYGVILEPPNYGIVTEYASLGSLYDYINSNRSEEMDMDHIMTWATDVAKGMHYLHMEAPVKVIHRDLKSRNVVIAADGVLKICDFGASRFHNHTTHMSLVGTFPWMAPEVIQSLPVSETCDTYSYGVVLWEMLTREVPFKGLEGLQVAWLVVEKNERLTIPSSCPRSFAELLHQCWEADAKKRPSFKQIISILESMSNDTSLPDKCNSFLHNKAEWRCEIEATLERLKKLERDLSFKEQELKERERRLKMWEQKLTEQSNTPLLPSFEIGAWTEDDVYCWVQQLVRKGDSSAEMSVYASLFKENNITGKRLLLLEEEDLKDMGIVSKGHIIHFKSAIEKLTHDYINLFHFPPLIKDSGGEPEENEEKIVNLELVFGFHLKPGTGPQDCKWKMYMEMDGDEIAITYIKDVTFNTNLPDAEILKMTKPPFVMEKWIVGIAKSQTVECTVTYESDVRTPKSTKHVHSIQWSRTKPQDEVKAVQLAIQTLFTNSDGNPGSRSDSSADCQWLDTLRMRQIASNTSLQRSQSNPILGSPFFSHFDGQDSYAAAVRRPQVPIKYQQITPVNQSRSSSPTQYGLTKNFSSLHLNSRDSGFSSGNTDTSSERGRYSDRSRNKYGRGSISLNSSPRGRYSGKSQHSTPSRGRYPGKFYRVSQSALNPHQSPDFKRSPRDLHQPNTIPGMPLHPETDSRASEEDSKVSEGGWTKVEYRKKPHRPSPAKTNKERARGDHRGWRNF", "assay": "KINOMEscan active-site competitive binding assay", "details": "slash = two separate measurements"}, "[7]": {"target": "T7, LOK (Homo sapiens, UniProt O94804)", "T7 construct": "purchased DiscoveRx (KINOMEscan service)", "T7 sequence (O94804 whole entry)": "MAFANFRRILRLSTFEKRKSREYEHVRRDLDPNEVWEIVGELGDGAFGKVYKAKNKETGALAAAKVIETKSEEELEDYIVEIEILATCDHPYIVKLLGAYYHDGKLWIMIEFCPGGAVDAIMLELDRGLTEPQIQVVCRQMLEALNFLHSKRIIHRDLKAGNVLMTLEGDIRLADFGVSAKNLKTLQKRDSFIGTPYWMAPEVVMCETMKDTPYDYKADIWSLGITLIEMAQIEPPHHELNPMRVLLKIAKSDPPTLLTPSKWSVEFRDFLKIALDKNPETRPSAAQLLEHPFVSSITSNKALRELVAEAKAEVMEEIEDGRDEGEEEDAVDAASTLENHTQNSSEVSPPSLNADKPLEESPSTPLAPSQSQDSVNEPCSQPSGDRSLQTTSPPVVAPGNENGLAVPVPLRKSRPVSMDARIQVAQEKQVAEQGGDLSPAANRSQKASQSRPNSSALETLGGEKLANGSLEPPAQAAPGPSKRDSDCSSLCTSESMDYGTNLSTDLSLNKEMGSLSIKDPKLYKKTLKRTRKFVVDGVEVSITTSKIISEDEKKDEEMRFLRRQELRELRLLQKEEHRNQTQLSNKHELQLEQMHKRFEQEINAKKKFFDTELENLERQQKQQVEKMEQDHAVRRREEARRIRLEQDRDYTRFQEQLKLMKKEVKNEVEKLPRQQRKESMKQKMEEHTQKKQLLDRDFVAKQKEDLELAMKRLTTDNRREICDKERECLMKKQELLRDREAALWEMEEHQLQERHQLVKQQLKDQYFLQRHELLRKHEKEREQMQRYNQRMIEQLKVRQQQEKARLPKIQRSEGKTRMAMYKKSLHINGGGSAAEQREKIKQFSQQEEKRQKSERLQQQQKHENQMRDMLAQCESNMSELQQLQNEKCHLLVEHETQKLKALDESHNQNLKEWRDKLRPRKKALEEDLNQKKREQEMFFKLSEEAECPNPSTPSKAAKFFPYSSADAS", "assay": "KINOMEscan active-site competitive binding assay", "details": "slash = two separate measurements"}, "[8]": {"target": "T8, TAOK3 (Homo sapiens, UniProt Q9H2K8)", "T8 construct": "purchased DiscoveRx", "T8 sequence (Q9H2K8 1-898)": "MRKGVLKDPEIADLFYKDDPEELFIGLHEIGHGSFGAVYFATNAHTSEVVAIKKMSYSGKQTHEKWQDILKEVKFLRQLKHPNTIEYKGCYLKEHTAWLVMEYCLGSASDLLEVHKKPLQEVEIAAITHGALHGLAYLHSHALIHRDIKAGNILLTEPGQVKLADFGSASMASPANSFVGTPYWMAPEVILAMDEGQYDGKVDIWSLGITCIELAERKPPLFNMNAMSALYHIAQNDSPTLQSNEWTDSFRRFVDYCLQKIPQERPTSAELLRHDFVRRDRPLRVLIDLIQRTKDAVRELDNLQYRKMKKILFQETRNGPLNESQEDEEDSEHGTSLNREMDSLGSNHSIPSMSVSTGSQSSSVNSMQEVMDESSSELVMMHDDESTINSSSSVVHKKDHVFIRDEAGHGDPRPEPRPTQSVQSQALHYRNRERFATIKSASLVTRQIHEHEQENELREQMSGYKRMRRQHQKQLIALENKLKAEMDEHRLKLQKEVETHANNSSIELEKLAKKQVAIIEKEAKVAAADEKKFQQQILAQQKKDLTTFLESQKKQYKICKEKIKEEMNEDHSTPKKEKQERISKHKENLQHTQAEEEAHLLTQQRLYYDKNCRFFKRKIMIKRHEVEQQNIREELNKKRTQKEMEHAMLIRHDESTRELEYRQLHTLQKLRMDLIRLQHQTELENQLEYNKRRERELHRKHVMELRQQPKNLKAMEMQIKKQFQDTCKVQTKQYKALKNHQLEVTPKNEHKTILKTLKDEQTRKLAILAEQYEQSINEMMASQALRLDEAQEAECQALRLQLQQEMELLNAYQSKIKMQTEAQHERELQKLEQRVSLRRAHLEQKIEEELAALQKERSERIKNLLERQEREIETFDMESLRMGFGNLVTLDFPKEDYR", "assay": "KINOMEscan active-site competitive binding assay", "details": "slash = duplicate values"}, "[9]": {"assay": "Plasma protein binding in vitro (Transil), human plasma", "format": "in vitro ADME", "details": "for Proportion of protein‐bound drug / Unbound fraction, fold lower than that of regorafenib / Major plasma protein to which the compound was bound: human plasma; for Major plasma protein to which the compound was bound: data not shown; for Unbound fraction, fold lower in human than in murine plasma: human versus murine plasma", "description": "A radioactivity analysis was performed by liquid scintillation counting. […] All compounds were tested for stability at the incubation conditions used."}, "[10]": {"target": "T9, TAK1 (Homo sapiens, UniProt O43318)", "T9 construct": "purchased DiscoveRx", "T9 sequence (O43318 1-606)": "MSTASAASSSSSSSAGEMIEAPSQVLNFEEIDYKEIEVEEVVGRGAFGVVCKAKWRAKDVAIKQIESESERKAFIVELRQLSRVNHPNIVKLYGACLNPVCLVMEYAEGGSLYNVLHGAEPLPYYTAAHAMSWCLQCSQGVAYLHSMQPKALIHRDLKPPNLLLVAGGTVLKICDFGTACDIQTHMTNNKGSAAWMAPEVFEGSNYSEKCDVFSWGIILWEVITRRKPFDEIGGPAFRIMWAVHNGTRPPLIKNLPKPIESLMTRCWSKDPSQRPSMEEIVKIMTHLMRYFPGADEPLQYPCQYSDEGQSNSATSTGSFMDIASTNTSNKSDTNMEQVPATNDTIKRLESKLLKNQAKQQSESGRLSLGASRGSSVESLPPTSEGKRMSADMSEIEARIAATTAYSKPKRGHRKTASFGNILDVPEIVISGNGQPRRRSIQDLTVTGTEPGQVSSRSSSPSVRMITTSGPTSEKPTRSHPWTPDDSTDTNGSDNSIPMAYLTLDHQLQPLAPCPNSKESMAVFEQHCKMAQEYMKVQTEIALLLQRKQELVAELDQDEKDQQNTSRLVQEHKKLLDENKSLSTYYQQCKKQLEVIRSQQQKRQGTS", "assay": "KINOMEscan active-site competitive binding assay", "details": "slash = two separate measurements"}, "[11]": {"details": "human, male, plasma, arithmetic mean ± SD"}}, "note": "Where “and” joins values, the source holds several entries; their conditions need not be identical. Equal values may be shown once.", "data": [{"smiles": "CNC(=O)c1cc(Oc2ccc(NC(=O)Nc3ccc(Cl)c(C(F)(F)F)c3)c(F)c2)cc[n+]1[O-]", "note": "[M‐2]", "values": [{"measurement": "Kd", "setting": "[1]", "value": 21, "unit": "nM"}, {"measurement": "Kd", "setting": "[2]", "value": 17, "unit": "nM"}, {"measurement": "Kd", "setting": "[3]", "value": "67 nM and 44 nM"}, {"measurement": "Kd", "setting": "[4]", "value": 8.7, "unit": "nM"}, {"measurement": "Kd", "setting": "[5]", "value": 140, "unit": "nM"}, {"measurement": "Kd", "setting": "[6]", "value": 6.7, "unit": "nM"}, {"measurement": "Kd", "setting": "[7]", "value": 9.3, "unit": "nM"}, {"measurement": "Kd", "setting": "[8]", "value": "94 nM and 77 nM"}, {"measurement": "Proportion of protein‐bound drug", "setting": "[9]", "value": "more than 99%"}, {"measurement": "Unbound fraction, fold lower than that of regorafenib", "setting": "[9]", "value": "about 2.5 fold"}, {"measurement": "Major plasma protein to which the compound was bound", "setting": "[9]", "value": "albumin"}, {"measurement": "Unbound fraction, fold lower in human than in murine plasma", "setting": "[9]", "value": "~ 5 fold"}, {"measurement": "Unbound fraction (%)", "setting": "[9]; [11]", "value": "0.188 ± 0.004", "unit": "%"}, {"measurement": "Kd", "setting": "[10]", "value": 79, "unit": "nM"}]}, {"smiles": "NC(=O)c1cc(Oc2ccc(NC(=O)Nc3ccc(Cl)c(C(F)(F)F)c3)c(F)c2)cc[n+]1[O-]", "note": "[M‐5]", "values": [{"measurement": "Kd", "setting": "[1]", "value": 13, "unit": "nM"}, {"measurement": "Kd", "setting": "[2]", "value": 48, "unit": "nM"}, {"measurement": "Kd", "setting": "[3]", "value": 670, "unit": "nM"}, {"measurement": "Kd", "setting": "[4]", "value": 25, "unit": "nM"}, {"measurement": "Kd", "setting": "[5]", "value": 140, "unit": "nM"}, {"measurement": "Kd", "setting": "[6]", "value": 7, "unit": "nM"}, {"measurement": "Kd", "setting": "[7]", "value": 11, "unit": "nM"}, {"measurement": "Kd", "setting": "[8]", "value": 450, "unit": "nM"}, {"measurement": "Proportion of protein‐bound drug", "setting": "[9]", "value": "more than 99%"}, {"measurement": "Unbound fraction, fold lower than that of regorafenib", "setting": "[9]", "value": "approximately 10 fold"}, {"measurement": "Major plasma protein to which the compound was bound", "setting": "[9]", "value": "albumin"}, {"measurement": "Unbound fraction, fold lower in human than in murine plasma", "setting": "[9]", "value": "~ 8 fold"}, {"measurement": "Unbound fraction (%)", "setting": "[9]; [11]", "value": "0.053 ± 0.013", "unit": "%"}, {"measurement": "Kd", "setting": "[10]", "value": 120, "unit": "nM"}]}, {"smiles": "CNC(=O)c1cc(Oc2ccc(NC(=O)Nc3ccc(Cl)c(C(F)(F)F)c3)c(F)c2)ccn1", "note": "[Regorafenib, reference compound]", "values": [{"measurement": "Kd", "setting": "[1]", "value": "43 nM and 10 nM"}, {"measurement": "Kd", "setting": "[2]", "value": "58 nM and 48 nM"}, {"measurement": "Kd", "setting": "[3]", "value": "1400 nM and 1900 nM"}, {"measurement": "Kd", "setting": "[4]", "value": "44 nM and 28 nM"}, {"measurement": "Kd", "setting": "[5]", "value": "68 nM and 67 nM"}, {"measurement": "Kd", "setting": "[6]", "value": "2.8 nM and 2 nM"}, {"measurement": "Kd", "setting": "[7]", "value": "15 nM and 10 nM"}, {"measurement": "Kd", "setting": "[8]", "value": "200 nM and 290 nM"}, {"measurement": "Proportion of protein‐bound drug", "setting": "[9]", "value": "more than 99%"}, {"measurement": "Major plasma protein to which the compound was bound", "setting": "[9]", "value": "albumin"}, {"measurement": "Unbound fraction (%)", "setting": "[9]; [11]", "value": "0.488 ± 0.091", "unit": "%"}, {"measurement": "fraction unbound", "setting": "[9]; male, human, plasma, arithmetic mean ± SD", "value": "~0.005"}, {"measurement": "Kd", "setting": "[10]", "value": "170 nM and 260 nM"}]}]}
